Experimental data taken from PMC2775441 (Pediatric blood & cancer, 2009).
Marks after values point to notes of the source that are not given here.

Columns and labels:
[1] = system: refractory pediatric central nervous system tumors; test: Tumor response by neuro-imaging; assay type: in vivo, human
[2] = adults, interval between successive doses less than 7 days; ref [20]; cited from earlier work
[3] = adults with solid tumors, ref [16], [18], [23]–[25], [30], cited from earlier work
[4] = ref [11]; cited from earlier work
[5] = Plasma pharmacokinetics of SU5416 and its metabolites; assay type: in vivo, human; settings: for half-life: human, plasma, iv
[6] = Phase I dose escalation: dose-limiting toxicity, MTD and adverse events; settings: human, in vivo
CYP3A4 = settings: ref [33], [39]; cited from earlier work
[7] = Stratum I (no EIACD), 110 mg/m^2 IV, week 1, 13 patients, mean ± SD
[8] = Stratum I (no EIACD), 110 mg/m^2 IV, week 6, 10 patients, mean ± SD
[9] = Stratum I (no EIACD), 145 mg/m^2 IV, week 1, 6 patients, mean ± SD
[10] = Stratum I (no EIACD), 145 mg/m^2 IV, week 6, 3 patients, mean ± SD
[11] = Stratum I (no EIACD), all doses IV, week 6, 13 patients, mean ± SD
[12] = Stratum II (EIACD), 35 mg/m^2 IV, week 1, 1 patient
[13] = Stratum II (EIACD), 48 mg/m^2 IV, week 1, 2 patients, mean ± SD
[14] = Stratum II (EIACD), 65 mg/m^2 IV, week 1, 6 patients, mean ± SD
[15] = Stratum II (EIACD), all doses IV, week 1, 9 patients, mean ± SD
[16] = Stratum I (no EIACD), SU5416 110 mg/m^2 IV, week 1, 13 patients, mean ± SD
[17] = Stratum I (no EIACD), SU5416 110 mg/m^2 IV, week 6, 10 patients, mean ± SD
[18] = Stratum I (no EIACD), SU5416 145 mg/m^2 IV, week 1, 6 patients, mean ± SD
[19] = Stratum I (no EIACD), SU5416 145 mg/m^2 IV, week 6, 3 patients, mean ± SD
[20] = Stratum I (no EIACD), all SU5416 doses IV, week 1, 19 patients, mean ± SD
[21] = Stratum I (no EIACD), all SU5416 doses IV, week 6, 13 patients, mean ± SD
[22] = Stratum II (EIACD), SU5416 35 mg/m^2 IV, week 1, 1 patient
[23] = Stratum II (EIACD), SU5416 48 mg/m^2 IV, week 1, 2 patients, mean ± SD
[24] = Stratum II (EIACD), SU5416 65 mg/m^2 IV, week 1, 6 patients, mean ± SD
[25] = Stratum II (EIACD), all SU5416 doses IV, week 1, 9 patients, mean ± SD

SMILES: Cc1cc(C)c(/C=C2\C(=O)Nc3ccccc32)[nH]1 [SU5416, semaxanib]
- Stable Disease Duration (months) ([1]; Pt 1, Glioblastoma Multiforme, Spinal Cord): 5.3 months
- Change from baseline (%) ([1]; Pt 1, Glioblastoma Multiforme, tumor size, 1.4 months from treatment): 0%
- Stable Disease Duration (months) ([1]; Pt 3, Choroid Plexus Carcinoma, Cerebrum): 14.3 months
- Tumor size ([1]; Pt 8, Glioblastoma Multiforme, FLAIR, 2.7 months from treatment, baseline 32.7): 35.5 cm^3
- Tumor size ([1]; Pt 8, Glioblastoma Multiforme, FLAIR, 8.1 months from treatment, baseline 32.7): 29.1 cm^3
- Tumor size ([1]; Pt 8, Glioblastoma Multiforme, FLAIR, 9.7 months from treatment, baseline 32.7): 23.9 cm^3
- Tumor size ([1]; Pt 8, Glioblastoma Multiforme, FLAIR, 11.1 months from treatment, baseline 32.7): 30.5 cm^3
- Tumor size ([1]; Pt 8, Glioblastoma Multiforme, FLAIR, 15.9 months from treatment, baseline 32.7): 28.9 cm^3
- Stable Disease Duration (months) ([1]; Pt 8, Glioblastoma Multiforme, Parietal lobe): 15.9 months
- Stable Disease Duration (months) ([1]; Pt 19, Astrocytoma, Anaplastic, Frontal lobe): 10.6 months
- Tumor size ([1]; Pt 26, Astrocytoma, NOS, Enhancement, 2.6 months from treatment, baseline 28.1): 31.9 cm^2
- Tumor size ([1]; Pt 26, Astrocytoma, NOS, Enhancement, 4.4 months from treatment, baseline 28.1): 34.7 cm^2
- Tumor size ([1]; Pt 26, Astrocytoma, NOS, Enhancement, 5.9 months from treatment, baseline 28.1): 34.7 cm^2
- Stable Disease Duration (months) ([1]; Pt 26, Astrocytoma, NOS, Supratentorial): 5.9 months
- Radiographic response after course 1: CR or PR (number of patients) ([1]; Stratum I, 16 evaluable): 0
- Radiographic response after course 1: PD (number of patients) ([1]; Stratum I, 16 evaluable): 10
- Radiographic response after course 1: PD (percent of evaluable patients) ([1]; Stratum I, 16 evaluable): 63%
- Radiographic response after course 1: SD (number of patients) ([1]; Stratum I, 16 evaluable): 6
- Radiographic response after course 1: SD (percent of evaluable patients) ([1]; Stratum I, 16 evaluable): 38%
- patients with sustained (prolonged) stable disease of possible clinical benefit ([1]; Stratum I, patients evaluable for response): 4 of 16
- Radiographic response after course 1: CR or PR (number of patients) ([1]; Stratum II, 6 evaluable): 0
- Radiographic response after course 1: PD (number of patients) ([1]; Stratum II, 6 evaluable): 5
- Radiographic response after course 1: PD (percent of evaluable patients) ([1]; Stratum II, 6 evaluable): 83%
- Radiographic response after course 1: SD (number of patients) ([1]; Stratum II, 6 evaluable): 1
- Radiographic response after course 1: SD (percent of evaluable patients) ([1]; Stratum II, 6 evaluable): 17%
- objective responses ([1]; either stratum): No objectives responses
- increase of clearance upon repeated administration [2]: more than 50%
- MTD in adults ([3]; intravenously twice weekly): 145 mg/m^2
- Dose-limiting toxicities in adults [3]: headache, nausea, and vomiting
- penetration into the CSF [4]: does not penetrate the CSF
- CL (total body clearance) [5, 7]: 28.7 ± 12.8 ^a liter/h/m^2
- Vz (apparent volume of distribution) [5, 7]: 43.3 ± 20.3 liter/m^2
- CL (total body clearance) [5, 8]: 38.0 ± 28.7 liter/h/m^2
- Vz (apparent volume of distribution) [5, 8]: 65.5 ± 26.7 liter/m^2
- CL (total body clearance) [5, 9]: 21.3 ± 11.5 liter/h/m^2
- Vz (apparent volume of distribution) [5, 9]: 39.1 ± 24.8 liter/m^2
- CL (total body clearance) [5, 10]: 26.1 ± 17.1 liter/h/m^2
- Vz (apparent volume of distribution) [5, 10]: 37.2 ± 33.5 liter/m^2
- CL (total body clearance) [5, 11]: 34.9 ± 24.9 liter/h/m^2
- Vz (apparent volume of distribution) [5, 11]: 57.5 ± 34.6 liter/m^2
- CL (total body clearance) [5, 12]: 33.1 liter/h/m^2
- Vz (apparent volume of distribution) [5, 12]: 23.5 liter/m^2
- CL (total body clearance) [5, 13]: 48.0 ± 5.1 liter/h/m^2
- Vz (apparent volume of distribution) [5, 13]: 74.3 ± 71.7 liter/m^2
- CL (total body clearance) [5, 14]: 27.8 ± 11.4 liter/h/m^2
- Vz (apparent volume of distribution) [5, 14]: 45.5 ± 26.7 liter/m^2
- CL (total body clearance) [5, 15]: 32.0 ± 13.1 liter/h/m^2
- Vz (apparent volume of distribution) [5, 15]: 47.1 ± 30.6 liter/m^2
- half-life ([5]; 48 mg/m2, t1/2,z (terminal phase half-life), Stratum II (EIACD), 48 mg/m^2 IV, week 1, 2 patients, mean ± SD): 1.07 ± 0.9 h
- half-life ([5]; 65 mg/m2, t1/2,z (terminal phase half-life), Stratum II (EIACD), 65 mg/m^2 IV, week 1, 6 patients, mean ± SD): 1.13 ± 0.62 h
- most serious drug-related toxicities [6]: grade 3 liver enzyme abnormalities, arthralgia and hallucinations
- role of CYP3A4 in elimination of SU5416 (CYP3A4): major isozyme catalyzing the initial oxidation

SMILES: Cc1cc(C(=O)O)[nH]c1C=C1C(=O)Nc2ccccc21 [SU6595]
- Relative extent of metabolism (%), AUC(0-t) metabolite/parent: SU6595 [5, 16]: 57.4 ± 36.4%
- Relative extent of metabolism (%), AUC(0-t) metabolite/parent: SU6595 [5, 17]: 72.9 ± 43.9%
- Relative extent of metabolism (%), AUC(0-t) metabolite/parent: SU6595 [5, 18]: 37.4 ± 25.3%
- Relative extent of metabolism (%), AUC(0-t) metabolite/parent: SU6595 [5, 19]: 72.4 ± 26.1%
- Relative extent of metabolism (%), AUC(0-t) metabolite/parent: SU6595 [5, 20]: 50.1 ± 33.2%
- Relative extent of metabolism (%), AUC(0-t) metabolite/parent: SU6595 [5, 21]: 72.8 ± 39.1%
- Relative extent of metabolism (%), AUC(0-t) metabolite/parent: SU6595 [5, 22]: 55.2%
- Relative extent of metabolism (%), AUC(0-t) metabolite/parent: SU6595 [5, 23]: 26.4 ± 1.1%
- Relative extent of metabolism (%), AUC(0-t) metabolite/parent: SU6595 [5, 24]: 57.3 ± 20.4%
- Relative extent of metabolism (%), AUC(0-t) metabolite/parent: SU6595 [5, 25]: 48.1 ± 21.3%

SMILES: Cc1cc(CO)[nH]c1/C=C1\C(=O)Nc2ccccc21 [SU9838]
- Relative extent of metabolism (%), AUC(0-t) metabolite/parent: SU9838 [5, 16]: 3.95 ± 1.59%
- Relative extent of metabolism (%), AUC(0-t) metabolite/parent: SU9838 [5, 17]: 4.41 ± 2.28%
- Relative extent of metabolism (%), AUC(0-t) metabolite/parent: SU9838 [5, 18]: 3.98 ± 2.13%
- Relative extent of metabolism (%), AUC(0-t) metabolite/parent: SU9838 [5, 19]: 5.24 ± 0.81%
- Relative extent of metabolism (%), AUC(0-t) metabolite/parent: SU9838 [5, 20]: 3.96 ± 1.68%
- Relative extent of metabolism (%), AUC(0-t) metabolite/parent: SU9838 [5, 21]: 4.59 ± 2.11%
- Relative extent of metabolism (%), AUC(0-t) metabolite/parent: SU9838 [5, 22]: 2.44%
- Relative extent of metabolism (%), AUC(0-t) metabolite/parent: SU9838 [5, 23]: 4.07 ± 1.37%
- Relative extent of metabolism (%), AUC(0-t) metabolite/parent: SU9838 [5, 24]: 5.72 ± 3.41%
- Relative extent of metabolism (%), AUC(0-t) metabolite/parent: SU9838 [5, 25]: 4.82 ± 2.69%
